Measured values: ChEMBL document CHEMBL1150554, “Synthesis and activity of spiroisoindolines as novel noncompetitive NMDA antagonists” (Bioorg Med Chem Lett, 1993)
Active and inactive are the calls of the source. The calls are words filed in the database; no cut-off is given here.

Columns and labels:
Glutamate NMDA receptor = assay: Inhibition of [3H]-TCP binding to NMDA receptors on rat brain membranes.; format: cell membranes, Membrane
Gerbillinae [1] = assay: Tested for the percent protection from CA1 damage of the hippocampus (gerbil ischemia-induced cell death) after 1 mg/kg intraperitoneal administration, 45 min pre and 5 min post ischemia event; format: functional
Mus musculus [2] = assay: Compound was tested at a dose of 0.5-1mg/Kg, ip; produced effects such as body rolling, ataxia and hyperlocomotion; format: functional, organism-based
Mus musculus [3] = assay: Compound was tested at a dose of 20-40mg/Kg, ip; produced effects such as body rolling, ataxia and hyperlocomotion; format: functional, organism-based
Gerbillinae [4] = assay: Tested for the percent reduction in CA1 damage of the hippocampus (gerbil ischemia-induced cell death) after 60 mg/kg intraperitoneal administration,45 min pre and 5 min post ischemia event; format: functional
Mus musculus [5] = assay: Compound was tested up to a dose of 80mg/Kg, ip; did not produce effects such as body rolling, ataxia and hyperlocomotion; format: functional, organism-based
Rattus norvegicus = assay: Tested […] for the NMDA-induced cytotoxicity at a concentration of 100 uM in rat cortical cell cultures; format: functional
Mus musculus [6] = assay: Tested in vivo for the antagonistic activity after 0.4 ug/mouse of NMDA intracerebral administration in mice; format: functional; details: central

## CN1Cc2ccccc2C12CCCCc1ccccc12 (centres undefined)
Glutamate NMDA receptor
  IC50: 1.7 µM

## COc1ccc2c(c1)C1(CCCc3ccccc31)N(C)C2 (centres undefined)
Glutamate NMDA receptor
  IC50: 0.79 µM

## CN1Cc2ccccc2C12CCc1ccccc12 (centres undefined)
Glutamate NMDA receptor
  IC50: 0.065 µM

## CN1Cc2ccc(O)cc2C12CCCCc1ccccc12 (centres undefined)
Glutamate NMDA receptor
  IC50: 0.16 µM

## COc1ccc2c(c1)C1(CCCCc3ccccc31)N(C)C2 (centres undefined)
Glutamate NMDA receptor
  IC50: 2.7 µM

## COc1ccc2c(c1)C1(CCCc3ccccc31)NC2 (centres undefined)
Glutamate NMDA receptor
  IC50: 4 µM

## c1ccc2c(c1)CCCCC21NCc2ccccc21 (centres undefined)
Glutamate NMDA receptor
  IC50: 1.7 µM

## CCCN1Cc2ccccc2C12CCc1ccccc12 (centres undefined)
Glutamate NMDA receptor
  IC50: 0.44 µM

## Oc1cccc2c1CCC21NCc2ccccc21 (centres undefined)
Glutamate NMDA receptor
  IC50: 0.73 µM

## CN1Cc2ccccc2C12CCCc1ccccc12 (centres undefined)
Glutamate NMDA receptor
  IC50: 1.5 µM

## CCCN1Cc2ccccc2C12CCCCc1ccccc12 (centres undefined)
Glutamate NMDA receptor
  IC50: 17 µM

## Oc1ccc2c(c1)C1(CCCc3ccccc31)NC2 (centres undefined)
Glutamate NMDA receptor
  IC50: 0.24 µM

## C[C@]12N[C@H](Cc3ccccc31)c1ccccc12.Cl [DIZOCILPINE HYDROCHLORIDE]
Gerbillinae [1]
  Protection: 42%
Mus musculus [2]
  Activity: Active

## c1ccc2c(c1)CCCC21NCc2ccccc21 (centres undefined)
Glutamate NMDA receptor
  IC50: 0.89 µM

## CCCN1Cc2ccccc2C12CCCc1sccc12 (centres undefined)
Glutamate NMDA receptor
  IC50: 1.5 µM

## COc1cccc2c1CCC21NCc2ccccc21 (centres undefined)
Glutamate NMDA receptor
  IC50: 5 µM

## CCCN1Cc2ccccc2C12CCCc1ccccc12 (centres undefined)
Glutamate NMDA receptor
  IC50: 1.6 µM

## COc1ccc2c(c1)C1(CCCCc3ccccc31)NC2 (centres undefined)
Glutamate NMDA receptor
  IC50: 4.8 µM

## c1ccc2c(c1)CCC21NCc2ccccc21 (centres undefined)
Mus musculus [3]
  Activity: Active
Glutamate NMDA receptor
  IC50: 0.98 µM

## CN1Cc2ccccc2C12CCCc1sccc12.O=C(O)C(=O)O (centres undefined)
Gerbillinae [4]
  Reduction: 84%
Mus musculus [5]
  Activity: inactive
Glutamate NMDA receptor
  IC50: 0.49 µM
Rattus norvegicus
  Protection: 68%
Mus musculus [6]
  ED50: 32 mg/kg

## CCCN1Cc2ccc(OC)cc2C12CCCCc1ccccc12 (centres undefined)
Glutamate NMDA receptor
  IC50: 17 µM

## CN1Cc2ccc(O)cc2C12CCCc1ccccc12 (centres undefined)
Glutamate NMDA receptor
  IC50: 0.2 µM

## c1ccc2c(c1)CNC21CCCc2sccc21 (centres undefined)
Glutamate NMDA receptor
  IC50: 0.6 µM
